Data published in patent US11464227B2, “Enhanced microbial and biorational control of nematode pests of plants” (ADVANCED BIOLOGICAL MARKETING, INC., priority 2017, dated 2022).

Tested on: plant
Assay: Plant growth and disease resistance induction by Trichoderma metabolite
Type: in vivo
Settings: at very low concentrations
Description: These endophytic microorganisms frequently are fully symbiotic with plants (Harman, Howell, et al., 2004). These endophytic symbionts have abilities to induce multiple beneficial effects in plants, including induced resistance to diseases and potentially other pests; resistance to abiotic stresses such as drought, salt and flooding; improved efficiency of uses of nitrogen and other plant nutrients; enhancement of seed germination and seedling vigor; and enhanced plant growth and development. There are numerous diverse genera of microbes that induce at least most of these changes in plant performance, including mycorrhizae, plant growth promoting rhizobacteria, and Basidomycetous fungi in the Sebaciles such as Piriformaspora indica. These organisms have an endophytic versus a plant pathogenic life style (Shoresh, Mastouri, et al., 2010) typical of numerous other plant-associated microorganisms. The systemic changes in plant gene expression are presumed to be induced by the production of specific triggering metabolites from these different organisms. […] (Cawoy, Mariutto, et al., 2014, Debois, Fernandez, et al., 2015), and hydrophobic proteins (Djonovic, Vargas, et al., 2007, Ruoccco, Lanzuise, et al., 2015) and volatile and nonvolatile metabolites from Trichoderma […], et al., 2008).

## C=CC(O)CCCCC (centres unmarked) [1-octene-3-ol]
  induction of plant disease resistance: highly effective
  plant growth: strongly enhances
